The test system of this assay is BDF1 mice, Lymphoma 8 ip, survival T/C. Nature of the assay: NCI In Vivo Anticancer Drug Screen. Data for tumor model Lymphoma 8 (intraperitoneal) in B6D2F1 (BDF1) mice. The settings on record: higher = longer survival. On the procedure: The antitumor activity of compounds was measured in mice bearing transplantable tumors. Survival or tumor size were measured and the results are expressed as the measurement made in the treated group (T) divided by the measurement made in the vehicle treated control group (C). The tumor model used in this assay is Lymphoma 8 (intraperitoneal) in B6D2F1 (BDF1) mice

Setting [1] is: endpoint: survival time, mean or median, dose: 50.0 mg/kg/injection, schedule: Q01DX015 (ip), vehicle: carboxymethylcellulose (CMC).
Where [2] appears, read: endpoint: survival time, mean or median, dose: 12.5 mg/kg/injection, schedule: Q01DX010 (ip), vehicle: saline.
Setting [3] is: endpoint: survival time, mean or median, dose: 25.0 mg/kg/injection, schedule: Q01DX010 (ip), vehicle: saline.
The mark [4] stands for this setting: endpoint: survival time, mean or median, dose: 3.13 mg/kg/injection, schedule: Q01DX010 (ip), vehicle: saline.
Setting [5] is: endpoint: survival time, mean or median, dose: 6.25 mg/kg/injection, schedule: Q01DX010 (ip), vehicle: saline.
[6] abbreviates: endpoint: survival time, mean or median, dose: 12.5 mg/kg/injection, schedule: Q01DX015 (ip), vehicle: carboxymethylcellulose (CMC).
Where [7] appears, read: endpoint: survival time, mean or median, dose: 5.0 mg/kg/injection, schedule: Q01DX010 (ip), vehicle: saline.
Where [8] appears, read: endpoint: survival time, mean or median, dose: 10.0 mg/kg/injection, schedule: Q01DX010 (ip), vehicle: saline.
[9] abbreviates: endpoint: survival time, mean or median, dose: 20.0 mg/kg/injection, schedule: Q01DX010 (ip), vehicle: saline.
Where [10] appears, read: endpoint: survival time, mean or median, dose: 25.0 mg/kg/injection, schedule: Q01DX015 (ip), vehicle: carboxymethylcellulose (CMC).
Where [11] appears, read: endpoint: survival time, mean or median, dose: 100.0 mg/kg/injection, schedule: Q01DX015 (ip), vehicle: carboxymethylcellulose (CMC).

Values joined by “and” are separate entries in the source; they are usually repeats but may differ in a detail not shown here. Identical values can stand only once. Toxic doses and inconclusive results are not listed.

`Cc1cc2nc3c(=O)[nH]c(=O)nc-3n(CC(O)C(O)C(O)C(O)CO)c2cc1C` (configuration not stated): the T/C runs as follows: under setting [1], 90 % of control; (endpoint: survival time, mean or median, dose: 200.0 mg/kg/injection, schedule: Q01DX015 (ip), vehicle: carboxymethylcellulose (CMC)) 87 % of control.

With `CS(=O)(=O)OCCC(=O)N1CCN(C(=O)CCOS(C)(=O)=O)CC1`, the T/C under setting [2] was 116 % of control; the T/C under setting [3] is 123 % of control; the T/C (endpoint: survival time, mean or median, dose: 50.0 mg/kg/injection, schedule: Q01DX010 (ip), vehicle: saline) was 156 % of control; the T/C (endpoint: survival time, mean or median, dose: 100.0 mg/kg/injection, schedule: Q01DX010 (ip), vehicle: saline) was 203 % of control.

For `CCCNc1ncnc2[nH]ncc12`, the T/C is 104 % of control (2×) and 105 % of control under setting [4]; 105 % of control and 106 % of control under setting [5]; 90 % of control and 100 % of control and 114 % of control under setting [2].

Turning to `NC(=O)c1[nH]nc(C2OC(CO)C(O)C2O)c1O` (configuration not stated), the T/C by setting is: (endpoint: median survival time, dose: 1.56 mg/kg/injection, schedule: Q04DX003 (ip), vehicle: saline) 100 % of control; (endpoint: median survival time, dose: 2.59 mg/kg/injection, schedule: Q04DX003 (ip), vehicle: saline) 103 % of control; (endpoint: median survival time, dose: 4.32 mg/kg/injection, schedule: Q04DX003 (ip), vehicle: saline) 103 % of control; (endpoint: median survival time, dose: 7.2 mg/kg/injection, schedule: Q04DX003 (ip), vehicle: saline) 104 % of control; (endpoint: median survival time, dose: 12.0 mg/kg/injection, schedule: Q04DX003 (ip), vehicle: saline) 122 % of control; (endpoint: median survival time, dose: 20.0 mg/kg/injection, schedule: Q04DX003 (ip), vehicle: saline) 111 % of control.

For the compound `O=C(O)c1[nH]c(=O)[nH]c(=O)c1F`, the T/C is, setting by setting: (endpoint: survival time, mean or median, dose: 12.0 mg/kg/injection, schedule: Q01DX015 (ip), vehicle: carboxymethylcellulose (CMC)) 99 % of control; under setting [6], 98 % of control.

For `Nc1nc(=S)c2[nH]cnc2[nH]1`, the T/C runs as follows: (endpoint: survival time, mean or median, dose: 1.25 mg/kg/injection, schedule: Q01DX010 (ip), vehicle: other) 120 % of control; (endpoint: survival time, mean or median, dose: 5.0 mg/kg/injection, schedule: Q01DX010 (ip), vehicle: other) 115 % of control; (endpoint: survival time, mean or median, dose: 10.0 mg/kg/injection, schedule: Q01DX010 (ip), vehicle: other) 110 % of control.

Regarding `Nc1nc(F)nc2c1ncn2C1OC(CO)C(O)C1O` (configuration not stated), the T/C (endpoint: survival time, mean or median, dose: 0.75 mg/kg/injection, schedule: Q01DX015 (ip), vehicle: saline) was 88 % of control.

Regarding `C[C@H]1C(=O)O[C@@H]2CCN3CC=C(COC(=O)[C@](C)(O)[C@@]1(C)O)[C@H]23`, the T/C was 116 % of control under setting [4], 100 % of control under setting [5], 104 % of control under setting [2] and 104 % of control under setting [3].

On to `CN(C)c1ccc(/C=C/c2ccnc3ccccc23)cc1`, for which the T/C by setting is: under setting [7], 104 % of control and 118 % of control; under setting [8], 86 % of control and 109 % of control; under setting [9], 86 % of control and 104 % of control; (endpoint: survival time, mean or median, dose: 40.0 mg/kg/injection, schedule: Q01DX010 (ip), vehicle: saline) 95 % of control and 100 % of control.

For the compound `CN(Cc1cnc2nc(N)nc(N)c2n1)c1ccc(C(=O)N[C@@H](CCC(=O)O)C(=O)O)cc1`, the T/C by setting is: (endpoint: median survival time, dose: 1.0 mg/kg/injection, schedule: Q01DX009 (ip), vehicle: sodium bicarbonate) 118 % of control; (endpoint: median survival time, dose: 2.0 mg/kg/injection, schedule: Q01DX009 (ip), vehicle: sodium bicarbonate) 93 % of control.

In the case of `C[C@@H]1C[C@H]2CC[C@H](O2)[C@H](C)C(=O)O[C@@H](C)C[C@@H]2CC[C@@H](O2)[C@@H](C)C(=O)O[C@H](C)C[C@H]2CC[C@H](O2)[C@H](C)C(=O)O[C@@H](C)C[C@@H]2CC[C@@H](O2)[C@@H](C)C(=O)O1`, the T/C reads like this: (endpoint: survival time, mean or median, dose: 45.0 mg/kg/injection, schedule: Q01DX015 (ip), vehicle: other) 102 % of control; (endpoint: survival time, mean or median, dose: 90.0 mg/kg/injection, schedule: Q01DX015 (ip), vehicle: other) 94 % of control; (endpoint: survival time, mean or median, dose: 360.0 mg/kg/injection, schedule: Q01DX015 (ip), vehicle: other) 88 % of control.

With `C[n+]1c2ccccc2nc2c(N)cc(N)cc21`, the T/C was 121 % of control (endpoint: survival time, mean or median, dose: 8.0 mg/kg/injection, schedule: Q01DX010 (ip), vehicle: saline); 117 % of control (endpoint: survival time, mean or median, dose: 12.0 mg/kg/injection, schedule: Q01DX010 (ip), vehicle: saline); 107 % of control (endpoint: survival time, mean or median, dose: 18.0 mg/kg/injection, schedule: Q01DX010 (ip), vehicle: saline).

Consider `NC(=O)/C=C/NC(=O)/C=N\O`, for which the T/C (endpoint: survival time, mean or median, dose: 50.0 mg/kg/injection, schedule: Q01DX008 (ip), vehicle: saline) was 92 % of control and the T/C (endpoint: survival time, mean or median, dose: 200.0 mg/kg/injection, schedule: Q01DX008 (ip), vehicle: saline) is 88 % of control.

On to `COc1ccc(CSc2ncnc3nc[nH]c23)cc1`, for which the T/C by setting is: (endpoint: survival time, mean or median, dose: 62.5 mg/kg/injection, schedule: Q01DX015 (ip), vehicle: carboxymethylcellulose (CMC)) 95 % of control; (endpoint: survival time, mean or median, dose: 125.0 mg/kg/injection, schedule: Q01DX015 (ip), vehicle: carboxymethylcellulose (CMC)) 92 % of control; (endpoint: survival time, mean or median, dose: 250.0 mg/kg/injection, schedule: Q01DX015 (ip), vehicle: carboxymethylcellulose (CMC)) 87 % of control.

Turning to `COc1ccc(C[n+]2cc([O-])on2)cc1`, the T/C is, setting by setting: under setting [6], 99 % of control; under setting [10], 106 % of control; under setting [1], 100 % of control; under setting [11], 113 % of control.

In the case of `N[C@@H](Cc1ccc(N(CCCl)CCCl)cc1)C(=O)O`, the T/C (endpoint: survival time, mean or median, dose: 4.0 mg/kg/injection, schedule: Q01DX015 (ip), vehicle: carboxymethylcellulose (CMC)) was 91 % of control.

`Nc1nc(SCc2ccccn2)c2[nH]cnc2n1`: the T/C runs as follows: under setting [6], 98 % of control; under setting [10], 96 % of control; under setting [11], 104 % of control.

Regarding `NC(C/[N+]([O-])=N/O)C(=O)O` (configuration not stated), the T/C was 113 % of control (endpoint: median survival time, dose: 12.5 mg/kg/injection, schedule: Q01DX009 (ip), vehicle: saline) and 117 % of control (endpoint: median survival time, dose: 25.0 mg/kg/injection, schedule: Q01DX009 (ip), vehicle: saline).

As to `CS(=O)(=O)OCCCl`, the T/C is, setting by setting: (endpoint: survival time, mean or median, dose: 9.4 mg/kg/injection, schedule: Q01DX010 (ip), vehicle: saline) 107 % of control; (endpoint: survival time, mean or median, dose: 18.8 mg/kg/injection, schedule: Q01DX010 (ip), vehicle: saline) 91 % of control and 96 % of control; (endpoint: survival time, mean or median, dose: 37.5 mg/kg/injection, schedule: Q01DX010 (ip), vehicle: saline) 91 % of control and 100 % of control; (endpoint: survival time, mean or median, dose: 75.0 mg/kg/injection, schedule: Q01DX010 (ip), vehicle: saline) 91 % of control and 96 % of control.

`O=c1[nH]cc(F)c(=O)[nH]1`: the T/C was 155 % of control (endpoint: median survival time, dose: 28.8 mg/kg/injection, schedule: Q04DX003 (ip), vehicle: saline); 277 % of control (endpoint: median survival time, dose: 48.0 mg/kg/injection, schedule: Q04DX003 (ip), vehicle: saline); 331 % of control (endpoint: median survival time, dose: 80.0 mg/kg/injection, schedule: Q04DX003 (ip), vehicle: saline); 108 % of control and 114 % of control under setting [7]; 153 % of control and 158 % of control under setting [9].

For the compound `CC(=O)OCC1OC(n2cnc3c(=S)nc(N)[nH]c32)C(OC(C)=O)C1OC(C)=O` (configuration not stated), the T/C (endpoint: survival time, mean or median, dose: 12.5 mg/kg/injection, schedule: Q01DX015 (ip), vehicle: other) was 106 % of control; the T/C (endpoint: survival time, mean or median, dose: 25.0 mg/kg/injection, schedule: Q01DX015 (ip), vehicle: other) is 107 % of control; the T/C (endpoint: survival time, mean or median, dose: 50.0 mg/kg/injection, schedule: Q01DX015 (ip), vehicle: other) is 97 % of control.

As to `Cc1cc(N(CCCl)CCCl)ccc1N=Nc1ccccc1C(=O)O`, the T/C is, setting by setting: under setting [7], 91 % of control and 107 % of control; under setting [8], 108 % of control and 110 % of control; under setting [9], 108 % of control.

The values above are taken from PubChem BioAssay AID242 (DTP/NCI, 2004).
